Structures are written as SMILES. Entries after “also recorded” stand apart in the source; their conditions may differ.

One series has as its system mouse NEC model. As to the kind of experiment: Experimental NEC in newborn mice (Example 1). In kind it is in vivo.
For series [1], the system named is TLR4. As to the kind of experiment: TLR4 signaling and Tlr4 expression in newborn mouse ileum in vivo (endotoxemia model, LPS). The protocol: Endotoxemia was induced in neonatal mouse pups (p11) by administering 5 mg/kg lipopolysaccharides (LPS) via intraperitoneal injection, and ileal samples were harvested 6 hours after LPS treatments. […] I3C and A18 were administered to the pregnant mother daily until the offspring were studied further for experimental NEC or endotoxemia as above. […] The mRNA quantification was performed on the Bio-Rad CFX96 Real-Time System (Bio-Rad) using iTaqTM universal SYBR® Green supermix (Bio-Rad) and the primers listed in Table 1. The relative mRNA expression levels were normalized against the expression of the housekeeping gene ribosomal protein lateral stalk subunit P0 (Rplp0). For microRNA isolation, freshly harvested, snap-frozen ileal tissue was subjected to total RNA isolation using the RNeasy plus universal mini kit (Qiagen) and miRNA was quantified using miScript PCR starter kit (Qiagen) following the manufacturer's protocols. The relative miRNA expression levels were normalized against the expression of housekeeping miRNA miR-191.

The test system of a further series is AHR. As to the kind of experiment: AHR activation in mouse ileal enteroids (Cyp1a1 qRT-PCR). The format is cell-based. Also on record: Cyp1a1 expression (AHR activation) in enteroids: dose or concentration left out as unconfirmed. The protocol:
(§1) Primary intestinal crypt cultures (enteroids) were generated from the ileum of neonatal (p7-p11) wild type and Ahr′ mice at as described, Neal et al., 2012, and maintained in Matrigel (Corning). The enteroids were digested and passed using TrypLE Express (Gibco) weekly, and used between passage 3 and 10 for all experiments. The enteroids were pre-treated with I3C ([…], 12 h), A18 (20 μM, 12 h) or human breast milk (100 μL/mL, Innovative Research, prepared by 5-minute-cenrifugation at 12,000 g and then filtration of supernatant through a 0.22-μm filter) and then treated with LPS (50 μg/mL) for 4 hours for further analysis.
(§2) Primary intestinal crypt cultures (enteroids) were generated from the ileum of neonatal (p7-p11) mice at as described, Neal et al., 2012, and maintained in Matrigel (Corning). The enteroids were digested and passed using TrypLE Express (Gibco) weekly, and used between passage 3 and 10 for all experiments. The enteroids were pre-treated with tested compound (40 uM, overnight) and then treated with LPS (50 μg/mL) for 6 hours for further analysis.
(§3) Total RNA was isolated using the RNeasy mini kit (Qiagen) and complementary DNA was synthesized from 0.5 μg RNA using QuantiTect Reverse Transcription kit (Qiagen) following the manufacturer's protocols. The mRNA quantification was performed on the Bio-Rad CFX96 Real-Time System (Bio-Rad) using iTaq™ universal SYBR® Green supermix (Bio-Rad) and the primers listed in Table 2. The relative mRNA expression levels were normalized against the expression of the housekeeping gene ribosomal protein lateral stalk subunit P0 (Rplp0).
(In qPCR the cycle at which signal appears reflects the starting amount.)

Series [2] deals with TLR4. The series can be described thus: TLR4 signaling in mouse ileal enteroids (LPS-induced Tnf-a qRT-PCR). Particulars: I3C or breast milk pre-treatment, LPS 50 μg/mL. The format is cell-based. The protocol: as §1, §2, §3
Series [3] concerns TLR4. The series can be described thus: TLR4 signaling and expression in human ileal explant culture (LPS). Particulars: 200 μM I3C or 20 μM A18; LPS 50 μg/mL for 6 hours. In kind it is cell-based.
Description: De-identified human ileal samples were collected via waiver of consent from the Office of Human Subjects Research Review Boards at Johns Hopkins University (IRB00094036), during surgery for NEC or at the time of stoma closure. For RNA isolation and qRT-PCR analysis, fresh samples were snapfrozen in liquid nitrogen immediately. For human explant culture, fresh ileum samples from NEC patients or patient undergoing stoma re-anastomosis were washed with sterile phosphate-buffered saline containing gentamycin (5 μg/mL), minced into 2- to 4-mm diameter pieces, and then cultured in Dulbecco's modified Eagle growth medium supplemented with 10% fetal bovine serum, 4 μg/mL human recombinant insulin and 100 μg/mL Primocin. Human ilea explant cultures were then pre-treated with 200 μM I3C or 20 μM A18 for 15 minutes, and then with 50 μg/mL LPS for 6 hours, then processed for total RNA isolation followed by qRT-PCR.
as §3, with “1.” for “2.”, “(Rplp0). For microRNA isolation, freshly harvested, snap-frozen ileal tissue was subjected to total RNA isolation using the RNeasy plus universal mini kit (Qiagen) and miRNA was quantified using miScript PCR starter kit (Qiagen) following the manufacturer's protocols. The relative miRNA expression levels were normalized against the expression of housekeeping miRNA miR-191.” for “(Rplp0).”

For series [4], the system named is miR-146b, miR-223 and let-7i. As to the kind of experiment: Tlr4 regulatory microRNAs in mouse ileum. In kind it is in vivo. Particulars: I3C 25 mg/kg body weight/day for 24 hours. Here is the method: as §3, with “1.” for “2.”, “(Rplp0). For microRNA isolation, freshly harvested, snap-frozen ileal tissue was subjected to total RNA isolation using the RNeasy plus universal mini kit (Qiagen) and miRNA was quantified using miScript PCR starter kit (Qiagen) following the manufacturer's protocols. The relative miRNA expression levels were normalized against the expression of housekeeping miRNA miR-191.” for “(Rplp0).”

Setting [5] is: pups, maternal I3C during pregnancy.

In the case of `OCc1c[nH]c2ccccc12` [I3C, indole-3-carbinol], the NEC severity entry with mouse NEC model (Ahr^ΔIEC mice, I3C 25 mg/kg/day during NEC induction) is on record as “relatively scant protective effect”; in the series with mouse NEC model (Ahr^Δlys mice, I3C 25 mg/kg/day during NEC induction) it was “moderate protective effect; also recorded: protection against NEC development”; in the series on mouse NEC model (Ahr^−/− mice, oral to pups during NEC induction: I3C 25 mg/kg/day, A18 300 mg/kg/day, or human breast milk 5% in formula) it was “no protective effect”; in the series on mouse NEC model (Il22^−/− mice, I3C 25 mg/kg/day for 4 days) it was “reduced NEC severity”; in the series on mouse NEC model (wild-type mice, oral to pups during NEC induction: I3C 25 mg/kg/day, A18 300 mg/kg/day, or human breast milk 5% in formula) it was “significantly reduced the severity of NEC; also recorded: protection against NEC development”. In the series with mouse NEC model (oral I3C to the mother during pregnancy, 25 mg/kg body weight/day), the “severity of experimental NEC in the pups” value is on record as “significantly reduced the severity of experimental NEC”. The “expression of 116 in the intestinal epithelium (NEC)” value in the series with mouse NEC model (setting [5]) is reported as “reduced expression of 116”. Also, in the series on mouse NEC model (setting [5]), the “histological injury (terminal ileum, NEC)” value was “reduced histological injury”. In addition, the “intestinal epithelial apoptosis (TUNEL, NEC)” value in the series with mouse NEC model (setting [5]) is “reduced intestinal epithelial apoptosis”. Besides, the “TLR4 signaling (LPS-induced Tnfa) in the intestine” value with TLR4 [1] (Ahr^−/− mice, I3C) is “did not reduce”. In addition, the “Tlr4 expression in the intestinal mucosa” value with TLR4 [1] (Ahr^−/− mice, I3C) was “did not reduce”. Also, the “induction of the proinflammatory cytokine 116 in the neonatal (p11) mouse intestine in response to LPS” value with TLR4 [1] (maternal administration of I3C, vs pups from non I3C-treated mothers) is listed as “significantly reduced the induction of the proinflammatory cytokine 116”. Further, the “Tlr4 expression in the intestinal mucosa / newborn ileum” value in the series with TLR4 [1] (wild-type mice, fed I3C or A18) was “reduced expression of Tlr4”. Besides, the “LPS-induced Tnfa expression (TLR4 signaling) in the intestine” value with TLR4 [1] (wild-type p11 mice fed I3C) is reported as “reduced LPS-induced Tnfa expression”. For the same compound, the “Cyp1a1 expression (AHR activation) in enteroids” value with AHR (Ahr^−/− enteroids, I3C or human breast milk) is on record as “not”; with AHR (wild-type enteroids, I3C (12 h) or human breast milk (100 μL/mL)), “induced the expression of Cyp1a1”. The “LPS-induced Tnfa expression in enteroids” value is recorded as “not” in the series on TLR4 [2] (Ahr^−/− enteroids) and “significantly reduced the LPS-mediated induction of Tnfa” with TLR4 [2] (wild-type enteroids). Moreover, in the series with TLR4 [3], the “LPS-induced Tnf-a expression in human intestinal explant cultures” value is given as “reduced LPS-induced Tnf-a expression”. Moreover, the “expression in the ileum of microRNAs miR-146b, miR-223 and let-7i” value in series [4] (Ahr^−/− mice) is “did not increase the expression of these microRNAs”; in series [4] (wild type mice), “significantly upregulated”.

The record behind these values is US20230357261A1, “ARYL HYDROCARBON RECEPTOR LIGANDS AND THEIR ANALOGUES FOR THE PREVENTION AND TREATMENT OF INFLAMMATORY DISORDERS” (The Johns Hopkins University, priority 2020, published 2023).
